# Test results published in ChEMBL document CHEMBL5046291, “Evodiamine-Inspired Topoisomerase-Histone Deacetylase Dual Inhibitors: Novel Orally Active Antitumor Agents for Leukemia Therapy” (J Med Chem, 2022).
# The source made the active and inactive calls. No cut-off for these calls is given here.
# Columns and labels:
# [1] = tested on: HEL; experiment: Antiproliferative activity against HEL cells assessed as cell growth inhibition incubated for 8 hrs by CCK8 assay; assay type: functional, cell-based; conditions: Homo sapiens
# [2] = tested on: HEL; experiment: Antitumor activity against HEL cells xenografted in BALB/C mouse assessed as tumor growth inhibition at 5 mg/kg, po qd for 14 days consecutively by caliper method relative to control; assay type: functional, Homo sapiens; conditions: 336 h, time 14 day, read-out: TGI
# [3] = molecular target: T1, Protein deacetylase HDAC6 (Homo sapiens, UniProt Q9UBN7); experiment: Inhibition of full-length recombinant N-terminal GST-tagged human HDAC6 expressed in baculovirus infected Sf9 cells using Ac-Leu-Gly-Lys(Ac)-AMC as substrate preincubated for 5 mins followed by substrate addition and further incubated for 30 mins by fluorescence based microtiter plate reader assay
# T1 sequence (Q9UBN7 whole entry): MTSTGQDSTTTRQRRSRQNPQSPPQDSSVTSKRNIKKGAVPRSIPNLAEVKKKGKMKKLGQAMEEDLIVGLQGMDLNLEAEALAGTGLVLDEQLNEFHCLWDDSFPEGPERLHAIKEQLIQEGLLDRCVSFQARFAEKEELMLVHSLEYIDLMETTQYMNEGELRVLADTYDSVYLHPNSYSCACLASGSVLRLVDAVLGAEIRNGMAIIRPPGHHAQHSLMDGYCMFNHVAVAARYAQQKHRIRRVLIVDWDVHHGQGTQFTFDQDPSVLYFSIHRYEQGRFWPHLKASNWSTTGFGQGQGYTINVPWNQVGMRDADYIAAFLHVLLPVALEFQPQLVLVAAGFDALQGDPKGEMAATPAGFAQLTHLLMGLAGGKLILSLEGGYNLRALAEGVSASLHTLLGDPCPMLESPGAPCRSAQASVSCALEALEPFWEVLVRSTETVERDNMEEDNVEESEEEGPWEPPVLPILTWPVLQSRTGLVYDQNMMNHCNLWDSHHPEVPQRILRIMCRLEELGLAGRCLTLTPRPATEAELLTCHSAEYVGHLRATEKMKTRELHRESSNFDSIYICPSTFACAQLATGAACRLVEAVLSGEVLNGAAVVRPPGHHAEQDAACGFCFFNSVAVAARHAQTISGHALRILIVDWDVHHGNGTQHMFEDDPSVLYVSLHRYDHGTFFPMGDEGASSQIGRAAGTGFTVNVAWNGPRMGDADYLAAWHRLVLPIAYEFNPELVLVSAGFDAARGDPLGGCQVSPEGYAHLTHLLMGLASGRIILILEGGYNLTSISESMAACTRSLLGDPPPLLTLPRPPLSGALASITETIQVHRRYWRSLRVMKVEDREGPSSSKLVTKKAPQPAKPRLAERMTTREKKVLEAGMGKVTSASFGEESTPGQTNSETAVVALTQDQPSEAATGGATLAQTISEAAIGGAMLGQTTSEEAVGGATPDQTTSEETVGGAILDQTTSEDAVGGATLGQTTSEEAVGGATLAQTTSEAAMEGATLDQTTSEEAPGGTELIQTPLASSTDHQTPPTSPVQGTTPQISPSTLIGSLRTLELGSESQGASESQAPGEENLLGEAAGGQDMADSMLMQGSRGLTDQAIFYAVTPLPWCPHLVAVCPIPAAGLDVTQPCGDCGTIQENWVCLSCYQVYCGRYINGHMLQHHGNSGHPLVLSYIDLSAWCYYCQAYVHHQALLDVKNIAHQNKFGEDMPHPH
# [4] = Metabolic stability in ICR mouse liver microsome assessed as half life; assay type: ADME; conditions: liver microsomes
# [5] = molecular target: Histone deacetylase 1 (Homo sapiens, UniProt Q13547); experiment: In vivo inhibition of HDAC1 in HEL cells xenografted in BALB/C mouse assessed as upregulation of acetyl-H3 levels at 5 to 10 mg/kg by immunohistochemical staining method; assay type: functional, organism-based; conditions: dose 5-10 mg/kg
# [6] = tested on: HEL; experiment: Induction of apoptosis in HEL cells assessed as apoptotic cells at 0.1 uM incubated for 48 hrs by annexin V-FITC/PI staining based flow cytometry (reference value: 3.95%); assay type: functional, Homo sapiens
# [7] = molecular target: T2, Histone deacetylase 2 (Homo sapiens, UniProt Q92769); experiment: Inhibition of HDAC2 in HEL cells assessed as increase in acetyl-H4 levels at 20 to 100 nM incubated for 24 hrs by western blot analysis; assay type: cell-based; conditions: dose 20-100 nM
# [8] = Metabolic stability in ICR mouse liver microsome assessed as clearance; assay type: ADME; conditions: microsomes
# [9] = Toxicity in BALB/C mouse xenografted with HEL cells assessed as change in body weight at 5 to 10 mg/kg, po qd for 14 days consecutively; assay type: organism-based; conditions: in vivo, 336 h, dose 5-10 mg/kg, time 14 day
# [10] = molecular target: Histone deacetylase 3 (Homo sapiens, UniProt O15379); experiment: (§1) Inhibition of recombinant His-tagged human HDAC3 expressed in baculovirus infected insect cells using Ac-Leu-Gly-Lys(Ac)-AMC as substrate preincubated for 5 mins followed by substrate addition and further incubated for 30 mins by fluorescence based microtiter plate reader assay
# [11] = tested on: HEL; experiment: Antitumor activity against HEL cells xenografted in BALB/C mouse assessed as T/C value at 5 mg/kg, po qd for 14 days consecutively by caliper method relative to control; assay type: functional, Homo sapiens; conditions: time 14 day
# [12] = molecular target: T2, Histone deacetylase 2; experiment: as §1, with “full length C-terminal GST tagged” for “His-tagged”, “HDAC2” for “HDAC3”, “infected Sf9” for “infected”
# [13] = tested on: HEL; experiment: Induction of cell cycle arrest in HEL cells assessed as change in S-phase ratio at 0.5 uM incubated for 48 hrs by PI staining based flow cytometry relative to control; assay type: functional, Homo sapiens
# T2 sequence (Q92769 whole entry): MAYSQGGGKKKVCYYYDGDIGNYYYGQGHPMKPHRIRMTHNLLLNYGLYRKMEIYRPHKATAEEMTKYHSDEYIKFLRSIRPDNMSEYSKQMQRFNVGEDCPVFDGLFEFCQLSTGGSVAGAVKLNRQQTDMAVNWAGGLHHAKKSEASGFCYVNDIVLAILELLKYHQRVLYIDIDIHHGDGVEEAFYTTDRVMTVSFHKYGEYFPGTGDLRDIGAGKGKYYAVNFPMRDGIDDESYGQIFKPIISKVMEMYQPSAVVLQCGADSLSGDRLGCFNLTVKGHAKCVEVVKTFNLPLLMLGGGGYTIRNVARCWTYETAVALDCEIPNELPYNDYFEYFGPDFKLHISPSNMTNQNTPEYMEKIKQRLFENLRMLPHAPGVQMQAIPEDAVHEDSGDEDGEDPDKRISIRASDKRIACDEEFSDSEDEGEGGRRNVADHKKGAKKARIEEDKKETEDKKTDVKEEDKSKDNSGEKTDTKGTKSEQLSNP
# Histone deacetylase 1, sequence (Q13547 whole entry): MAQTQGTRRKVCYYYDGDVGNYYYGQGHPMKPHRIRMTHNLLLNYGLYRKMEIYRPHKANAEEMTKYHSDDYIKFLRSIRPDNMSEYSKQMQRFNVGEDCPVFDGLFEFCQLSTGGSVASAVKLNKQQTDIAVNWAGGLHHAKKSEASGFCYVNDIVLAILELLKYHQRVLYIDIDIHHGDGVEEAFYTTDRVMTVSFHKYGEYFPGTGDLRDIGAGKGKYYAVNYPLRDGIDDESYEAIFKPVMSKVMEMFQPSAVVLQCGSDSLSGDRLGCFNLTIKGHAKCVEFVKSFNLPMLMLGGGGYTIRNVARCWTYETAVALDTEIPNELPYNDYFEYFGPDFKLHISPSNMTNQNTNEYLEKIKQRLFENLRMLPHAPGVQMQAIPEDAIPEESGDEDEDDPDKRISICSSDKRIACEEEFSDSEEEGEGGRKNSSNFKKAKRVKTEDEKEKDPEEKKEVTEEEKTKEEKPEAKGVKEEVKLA
# Histone deacetylase 3, sequence (O15379 whole entry): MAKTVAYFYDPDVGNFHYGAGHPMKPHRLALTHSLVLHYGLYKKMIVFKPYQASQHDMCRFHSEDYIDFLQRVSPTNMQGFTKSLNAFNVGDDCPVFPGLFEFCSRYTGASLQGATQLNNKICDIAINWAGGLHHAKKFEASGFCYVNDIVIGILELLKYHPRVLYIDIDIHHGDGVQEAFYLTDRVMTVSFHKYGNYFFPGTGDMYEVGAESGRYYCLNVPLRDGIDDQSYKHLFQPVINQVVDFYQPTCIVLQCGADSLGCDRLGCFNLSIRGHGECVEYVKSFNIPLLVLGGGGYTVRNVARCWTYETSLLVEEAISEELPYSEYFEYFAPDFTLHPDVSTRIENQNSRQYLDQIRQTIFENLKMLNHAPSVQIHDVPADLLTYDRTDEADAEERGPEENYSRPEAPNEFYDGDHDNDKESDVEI
structure (smiles),measurement,setting,value
CN1c2ccc(F)cc2C(=O)N2CCc3c([nH]c4ccc(OCc5ccc(/C=C/C(=O)NO)cc5)cc34)C21 (stereo not drawn),IC50,[1],29 nM
same,inhibition in vivo at 5 mg/kg,[2],41.4%
same,IC50,[3],89 nM
same,half-life,[4],31.5 min
same,inhibition,[5],Active
same,Activity,[6],56.02%
same,inhibition,[7],Active
same,CLH,[8],173 mL/min/kg
same,Activity,[9],Non-Toxic
same,IC50,[10],59 nM
same,T/C,[11],54.3%
same,IC50,[12],140 nM
same,Activity,[13],25.8%
